The values below come from publication PMC3102446, “Different Effects of Mg^2+ and Zn^2+ on the Two Sites for Alkylammonium Compounds in Pseudomonas aeruginosa Phosphorylcholine Phosphatase” (Enzyme Research, 2011).

T1 sequence (Q9HTR2 23-349): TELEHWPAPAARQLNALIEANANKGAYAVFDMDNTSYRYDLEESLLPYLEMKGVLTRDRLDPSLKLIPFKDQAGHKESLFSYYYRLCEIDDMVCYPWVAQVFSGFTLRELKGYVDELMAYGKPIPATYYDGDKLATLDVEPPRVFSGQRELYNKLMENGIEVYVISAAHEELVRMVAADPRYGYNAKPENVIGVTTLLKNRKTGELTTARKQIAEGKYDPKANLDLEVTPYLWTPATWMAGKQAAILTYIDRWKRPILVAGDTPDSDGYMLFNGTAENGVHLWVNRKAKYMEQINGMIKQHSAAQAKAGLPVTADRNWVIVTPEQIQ

One data set concerns the target T1, Pseudomonas aeruginosa phosphorylcholine phosphatase (PchP) (Pseudomonas aeruginosa, UniProt Q9HTR2).
T1 construct: His-tag fusion produced in E. coli BL21 CodonPlus; purified with EDTA to remove residual metal
Nature of the data set: biochemical.
Settings: not given
The text has this:
inhibition of p-NPP hydrolysis, DYNAFIT global fit on Pseudomonas aeruginosa phosphorylcholine phosphatase (PchP)
A word on the Ki: it is the dissociation constant of the complex between target and ligand, obtained from inhibition or displacement. Low readings indicate a stronger hold on the target, high ones a looser hold on the target. `CC(C)(N)CO` [2-amino-2-methyl-1-propanol]: affinity was put at a Ki of 210 ± 10 µM. Same read-out and setting: next, `C[N+](C)(C)CCCCCC[N+](C)(C)C` [Hexamethonium]: 80 ± 10 µM; `C[N+](C)(C)CC(=O)[O-]` [Betaine]: 1440 ± 90 µM; `CN(C)C` [Trimethylamine]: 60 ± 10 µM. Same read-out and setting: the figure for `N[C@H](CO)Cc1c[nH]cn1` [L-histidinol] is 310 ± 80 µM.

`C[N+](C)(C)C` [Tetramethylammonium] registered an inhibition constant (Ki) of 35 ± 8 µM.

`COc1cc2c3cc1Oc1cc(ccc1O)C[C@@H]1c4c(cc(OC)c(O)c4Oc4ccc(cc4)C[C@@H]3N(C)CC2)CC[N+]1(C)C` [Tubocurarine]: affinity was put at a Ki of 2510 ± 210 µM. Still for that read-out and setting: the figure for `C[N+](C)(C)CCCCCCCCCC[N+](C)(C)C` [Decamethonium] is 80 ± 10 µM; for `C[N+](C)(C)CCCl` [Chlorocholine] it is 120 ± 10 µM. Still for that read-out and setting: next, `CN(C)C(=O)Oc1cccc([N+](C)(C)C)c1` [Neostigmine]: 570 ± 50 µM. The same measure, in the same setting: the figure for `C[N+](C)(C)CCO` [Choline] is 100 ± 10 µM.

The test system of a further data set is C[N+](C)(C)CCOP(=O)([O-])O. Nature of the data set: purified protein. The settings on record: 0.25-2 mM Mg2+, 100 mM sodium acetate pH 5.0, 37 °C, kcat1 of productive EAS complex.
Text: Pi release assay, DYNAFIT global fit on Pseudomonas aeruginosa phosphorylcholine phosphatase (PchP)
For orientation: Km means the substrate concentration at which the rate is half of its maximum. By kcat is commonly meant the number of substrate molecules converted per active site and unit of time at saturation. “Pseudomonas aeruginosa phosphorylcholine phosphatase (PchP) (Pseudomonas aeruginosa PAO1)”: the Michaelis constant (Km) came to 21 ± 8 µM and the kcat was 121 ± 8 s⁻¹.
